Assay results published in US20050049200A1, “LHRH-antagonists in the treatment of fertility disorders” (priority 1996, published 2005).
Entries after “also recorded” stand apart in the source; their conditions may differ. Where a SMILES comes first, the peptide text is derived from it. [ ]: non-standard residue; d: D form. dPhe(4-Cl) = N[C@H](Cc1ccc(Cl)cc1)C(=O)O; d2Nal = N[C@H](Cc1ccc2ccccc2c1)C(=O)O; dCit = NC(=O)NCCC[C@@H](N)C(=O)O; d3Pal = N[C@H](Cc1cccnc1)C(=O)O

Experiments:
[1] = tested on: patients undergoing COS/ART; test: Phase II clinical trial of Cetrorelix in controlled ovarian stimulation (COS/ART); assay type: in vivo
Experimental: The results of a phase II clinical trial are shown in Table I. A total of […] patients were treated. […] During multiple dosing, the mean days of Cetrorelix application is 6 days. 25 babies were born by the end of May 1996 (7 following multiple doses; 18 following single/dual doses). 238 patients were treated with Cetrorelix by subcutaneous injection of Cetrorelix […]-Lyophilisat. 134 patients were treated with multiple doses and 104 patients with single or dual doses. The multiple doses are 0.25 mg/day or higher. The single dose was 3 mg or higher. […]

[2] = tested on: patients undergoing COH for IVF/ICSI; test: Cetrorelix combined with clomifen citrate and gonadotrophins for hormonal stimulation (COH) for IVF/ICSI; assay type: in vivo; details: for fertilization rate: ICSI
Experimental: Combination of the GnRH antagonist Cetrorelix, clomifen citrate(CC) and gonadotrophins for hormonal stimulation for IVF/ICSI. COH was started on day 2 after spontaneous menstrual bleeding using 100 mg CC per day for 5 or 7 days. The antagonist Cetrorelix (0.25 mg s.c.) was given starting on stimulation day 6 combined with either urinary hMG or recombinant FSH (3 ampoules/d) in a prospective randomized way. After two days of gonadotrophin injection, the dose was individualized. Human chorionic gonadotropin was given for ovulation induction, if at least 3 follicles were ≧17 mm in diameter. In total, 30 patients were included in the study. 15 were randomized in each group. Intra cytoplasmatic sperm injection (ICSI) was applied in each case.

[3] = tested on: pituitary / follicular growth; test: Animal experiments and clinical studies with Cetrorelix (unstimulated follicular growth, pituitary responsiveness); assay type: in vivo
Excerpt: These low dosage levels present new possibilities for manipulating the time of ovulation during a normal, not exogenous gonadotropin-stimulated cycle, without affecting the viability of the growing follicle. In case of inadequate follicular growth related to treatment with LHRH-antagonists, low dose and short term administration of gonadotrophin or other trophic compounds will compensate for these effects. Subsequently, by stopping the LHRH-antagonist treatment, it is possible to let the normal ovulation occur or to induce ovulation by exogenous manipulation, if necessary. Ovulation induction was induced by the administration of standard HCG or by administration of LHRH and/or LHRH agonistic analogs. These described treatment alternatives are a departure from existing protocols, since they are possible only if preceded by treatment for LH-surge-control with an LHRH-antagonist. In animal and clinical studies with Cetrorelix it was shown that the responsiveness of the pituitary to LHRH or agonistic analogs is preserved under these conditions of treatment. Without this treatment, the pituitary cannot respond after agonistic pretreatment for LH-surge control due to receptor down-regulation. In addition, the possible use of ovulation inducing agents other than HCG results in a-reduced incidence of ovarian hyperstimulation syndrome.

premature LH surges = details: short term treatment; cited from earlier work
[4] = all phase II patients, both regimens
[5] = multiple dosing, 3-7/14 days, phase II dose finding
[6] = single dose (1 day), phase II dose finding

Q: What does the source list for `CC(=O)N[C@H](Cc1ccc2ccccc2c1)C(=O)N[C@H](Cc1ccc(Cl)cc1)C(=O)N[C@H](Cc1cccnc1)C(=O)N[C@@H](CO)C(=O)N[C@@H](Cc1ccc(O)cc1)C(=O)N[C@H](CCCNC(N)=O)C(=O)N[C@@H](CC(C)C)C(=O)N[C@@H](CCCNC(=N)N)C(=O)N1CCC[C@H]1C(=O)N[C@H](C)C(N)=O` [Cetrorelix] (Ac-[d2Nal][dPhe(4-Cl)][d3Pal]SY[dCit]LRP[dA]-NH2)?
A: FSH secretion ([1]; FIG. 1): maintained at a natural level; individual estrogen development ([1]; FIG. 1): not affected; pregnancies obtained [1, 4]: 71; pregnancy rate [1, 4]: 30%; babies born by the end of May 1996 ([1]; both regimens together): 25; babies born by the end of May 1996 ([1]; following multiple doses): 7; babies born by the end of May 1996 ([1]; following single/dual doses): 18; pregnancy rate ([1]; multiple dose regimen): 28.4%; pregnancies ([1]; multiple dose regimen, of 134 patients): 38; premature LH surge ([1]; multiple doses of 0.25 mg or higher or single dose of 3 mg or higher, s.c.): No premature LH surge; also recorded: absolute prevention of any premature LH surge; min. effective dose (Dose/Day) [1, 5]: 0.25 min. effect, dose mg; no effect dose (Dose/Day) [1, 5]: 0.10 no effect. dose mg; min. effective dose [1, 6]: 3 min. effective dose mg; no effect dose [1, 6]: 2 no effect. Dose mg; duration of effect to prevent a premature LH surge ([1]; single dose regimen): up to 6.5 days; pregnancy rate ([1]; single/dual dosage regimen): 31.7%; pregnancies ([1]; single/dual dosage regimen, of 104 patients): 33; ovarian hyperstimulation syndrome (OHSS) ([2]; both groups, 30 patients): No case; oocytes retrieved per cycle ([2]; hMG group): 7.7±3.8; fertilization rate ([2]; hMG group): 42%; oocytes retrieved per cycle ([2]; recombinant FSH group): 6.4±2.6; fertilization rate ([2]; recombinant FSH group): 53%; effect on normal, unstimulated follicular growth ([3]; multiple or single injections, extremely low dosage levels): arrest of the normal, unstimulated follicular growth; responsiveness of the pituitary to LHRH or agonistic analogs ([3]; under treatment for LH-surge control): preserved; premature LH surges during stimulated cycles (premature LH surges): complete avoidance of premature LH surges
